Active and inactive are the calls of the source. The calls are words filed in the database; no cut-off is given here.
What was measured:
Nucleoprotein [1] = target: T1, Nucleoprotein (Severe acute respiratory syndrome coronavirus 2, UniProt P0DTC9); experiment: Binding affinity to SARS-CoV-2 N-pro assessed as dissociation constant by SPR analysis
SARS-CoV-2 [2] = experiment: Antiviral activity against SARS-CoV-2 107 infected in African green monkey Vero E6 cells assessed as inhibition of viral replication pre-infected with virus followed by compound addition and measured after 72 hrs by inverted microscopic analysis; type: functional, organism-based; settings: Severe acute respiratory syndrome coronavirus 2, 107, Vero C1008, 72 h
[3] = Selectivity index, ratio of CC50 for cytotoxicity against African green monkey Vero E6 cells to EC50 for antiviral activity against SARS-CoV-2 107 infected in African green monkey Vero E6 cells; type: toxicity, cell-based; settings: read-out: Ratio CC50/EC50
Nucleoprotein [4] = target: T1, Nucleoprotein; experiment: Binding affinity to SARS-CoV-2 N-pro assessed as dissociation constant by MST analysis
Nucleoprotein [5] = target: T1, Nucleoprotein; experiment: Binding affinity to wild type SARS-CoV-2 N-pro assessed as dissociation constant by MST analysis
[6] = target: Nucleoprotein (Severe acute respiratory syndrome coronavirus 2) (UniProt P0DTC9); experiment: Inhibition of ssRNA binding to SARS-CoV-2 N-pro at 100 uM by MST analysis relative to control
SARS-CoV-2 [7] = experiment: Antiviral activity against SARS-CoV-2 107 infected in African green monkey Vero E6 cells assessed as inhibition of virus induced cytopathic effect by neutral red staining based analysis; type: functional, organism-based; settings: Severe acute respiratory syndrome coronavirus 2, time 74.0 hrs
SARS-CoV-2 [8] = experiment: Antiviral activity against SARS-CoV-2 107 infected in African green monkey Vero E6 cells assessed as increase in cell survival rate at 50 uM pre-infected with virus followed by compound addition for 2 hrs and measured after 72 hrs by MTT assay; type: functional, organism-based; settings: Severe acute respiratory syndrome coronavirus 2, time 74.0 hrs
[9] = Cytotoxicity against African green monkey Vero E6 cells after 72 hrs by CCK8 assay; type: toxicity, cell-based, Vero C1008; settings: chlorocebus sabaeus
Nucleoprotein [10] = target: T1, Nucleoprotein; experiment: Binding affinity to SARS-CoV-2 N-pro assessed as dissociation constant in presence of ssRNA by MST analysis

`CCn1c(=O)c2cc(OC)c(OC)cc2c2cccc(/C=N/c3nc[nH]n3)c21` gave a Kd (Nucleoprotein [1]) of 63.7 µM.

For `CCn1c(=O)c2cc(OC)c(OC)cc2c2cccc(C3C4=C(CCCC4=O)N(c4ccccc4)C4=C3C(=O)CCC4)c21`, the Kd (Nucleoprotein [1]) was 168 µM.

For `CCN1Cc2cc(OC)c(OC)cc2-c2cccc(Nc3ncnc4c3nnn4Cc3ccccc3)c21`, the EC50 (SARS-CoV-2 [2]) was 11.3 µM, the selectivity ratio [3] was > 17.7 and the Kd (Nucleoprotein [4]) was 0.73 µM. The Kd (Nucleoprotein [5]) was 5.4 µM, the inhibition [6] was 100% and the Activity (SARS-CoV-2 [7]) was “Active”. The Activity (SARS-CoV-2 [8]) was “Active”, the CC50 at 72 h [9] was > 200 µM and the Kd (Nucleoprotein [10]) was 83.7 µM. The Kd (Nucleoprotein [1]) was 0.35 µM.

Molecule `CCn1c(=O)c2cc(OC)c(OC)cc2c2cccc(/C=N/C3C=CNN3)c21` (stereo unspecified) has a Kd (Nucleoprotein [1]) of 2.53 µM.

With `CCN1Cc2cc(OC)c(OC)cc2-c2cccc(NCc3csc4ccc(Cl)cc34)c21` the Kd (Nucleoprotein [1]) was 97.7 µM.

For `CCN1Cc2cc(OC)c(OC)cc2-c2cccc(NC(=O)Cc3ccccc3)c21`, the Kd (Nucleoprotein [1]) was 5.31 µM.

For `CCN1Cc2cc(OC)c(OC)cc2-c2cccc(Nc3ccc4c(c3)oc3ccccc34)c21`, the Kd (Nucleoprotein [1]) was 44.1 µM.

In the case of `CCn1c(=O)c2cc(OC)c(OC)cc2c2cccc(/N=C/c3c4ccccc4cc4ccccc34)c21`, the Kd (Nucleoprotein [1]) is reported as 9.71 µM.

With `CCN1Cc2cc(OC)c(OC)cc2-c2cccc(NC(=O)c3cc([N+](=O)[O-])cc([N+](=O)[O-])c3)c21` the Kd (Nucleoprotein [1]) was 37.9 µM.

With `CCN1Cc2cc(OC)c(OC)cc2-c2cccc(NCc3ccc(C4(C(F)(F)F)N=N4)cc3)c21` the Kd (Nucleoprotein [1]) was 37 µM.

With `CCn1c(=O)c2cc(OC)c(OC)cc2c2cccc(NS(=O)(=O)c3ccc(Cl)cc3)c21` the Kd (Nucleoprotein [1]) was 5.27 µM.

`CCN1Cc2cc(OC)c(OC)cc2-c2cccc(NC(=O)Nc3cccc4c3N(CC)Cc3cc(OC)c(OC)cc3-4)c21` gave a Kd (Nucleoprotein [1]) of 4.58 µM.

— ChEMBL document CHEMBL6127073, “Utilizing artificial intelligence for precision exploration of N protein targeting phenanthridine sars-cov-2 inhibitors: A novel approach” (Eur J Med Chem, 2024)
